From publication PMC6089848 (Acta Pharmaceutica Sinica. B, 2018)
Counter-ions that a name gives are not always drawn.

Legend:
[1] = system: pseudotyped EBOV virus (pHIV-EBOVGP-Fluc); format: cell-based, Ebola virus (EBOV); details: for IC50: read-out: Anti-EBOV IC50
[2] = system: pseudotyped Vesicular Stomatitis Virus (pHIV-VSVGP-Fluc); format: cell-based, Vesicular Stomatitis Virus (VSV); details: read-out: Anti-VSV IC50
[3] = system: human embryonic kidney (HEK) 293 T cells
[4] = system: pHIV-MARVGP-Fluc virus; set-up: species or system BALB/c mice; details: mouse, ip
[5] = in vitro; details: human

| SMILES | SI [1] | IC50 [1] [µM] | IC50 [2] [µM] | CC50 [3] [µM] | reduction (bioluminescence), in vivo anti-MARV [4] | CC50 [5] [µM] |
| --- | --- | --- | --- | --- | --- | --- |
| COC(=O)CCCC1C2CCCN3CCCC(CN1Cc1ccc(Cl)c(Cl)c1)C23.Cl.Cl (stereo not drawn) [4a, methyl 12N-3′,4′-dichlorobenzyl sophoridinate dihydrochloride] | 8.28 | 2.68 | 7.52 | 22.2 |  |  |
| COC(=O)CCC[C@@H]1[C@H]2CCCN3CCC[C@H](CN1C(=O)c1ccc(Cl)cc1)[C@@H]23 [4b, Methyl 12N-p-chlorobenzoyl sophoridinate] | 5.12 | 39.1 | > 200 | 200 |  |  |
| COC(=O)CCCC1C2CCCN3CCCC(CN1S(=O)(=O)c1ccc(Cl)cc1)C23 (stereo not drawn) [4c, Methyl 12N-p-chlorobenzenesulfonyl sophoridinate] | >7.59 | 2.9 | > 22 | > 22 |  |  |
| O=C(O)CCCC1C2CCCN3CCCC(CN1C(=O)c1ccc(Cl)cc1)C23 (stereo not drawn) [5b, 12N-p-Chlorobenzoyl sophoridinic acid] |  | > 200 | > 200 | > 200 |  |  |
| O=C(O)CCCC1C2CCCN3CCCC(CN1S(=O)(=O)c1ccc(Cl)cc1)C23 (stereo not drawn) [5c, 12N-p-Chlorobenzenesulfonyl sophoridinic acid] | 17.5 | 11.4 | > 200 |  |  |  |
| COC(=O)CCCC1C2CCCN3CCCC(CN1Cc1ccc(Cl)cc1)C23.Cl.Cl (stereo not drawn) [7a, Methyl 12N-p-chlorobenzyl matrinate dihydrochloride] | 7.87 | 25.4 | 188 | 200 |  |  |
| O=C(O)CCC[C@@H]1[C@H]2CCCN3CCC[C@@H](CN1Cc1ccc(Cl)cc1)[C@@H]23 [8a, 12N-p-Chlorobenzyl matrinic acid dihydrochloride] |  | > 200 | > 200 | 200 |  |  |
| COC(=O)CC1C2CCCN3CCCC(CN1S(=O)(=O)c1ccc(Cl)cc1)C23.Cl (stereo not drawn) [10c, Methyl 12N-p-chlorobenzesulfonyl matrinic acetate hydrochloride] | >7.46 | 26.8 | > 200 | > 200 |  |  |
| COC(=O)CC1C2CCCN3CCCC(CN1Cc1ccc(Cl)c(Cl)c1)C23.Cl.Cl (stereo not drawn) [10d, Methyl 12N-3′,4′-dichlorobenzyl matrinic acetate dihydrochloride] | 15.3 | 10 | 123 | 153 |  |  |
| O=C(O)CC1C2CCCN3CCCC(CN1Cc1ccc(Cl)cc1)C23 (stereo not drawn) [11a, 12N-p-Chlorobenzyl matrinic acetic acid] |  | > 200 | > 200 | > 200 |  |  |
| O=C(O)CC1C2CCCN3CCCC(CN1C(=O)c1ccc(Cl)cc1)C23 (stereo not drawn) [11b, 12N-p-Chlorobenzoyl matrinic acetic acid] |  | > 200 | > 200 | > 200 |  |  |
| O=C(O)CC1C2CCCN3CCCC(CN1CCCc1cc(Cl)cc(Cl)c1)C23 (stereo not drawn) [15f, 12N-3′,5′-Dichlorohydrocinnamyl matrinic acetic acid] |  |  |  | 83.3 |  |  |
| CN[C@H]1CC[C@@H](c2ccc(Cl)c(Cl)c2)c2ccccc21 [Sertraline, sertraline] |  |  |  |  | no activity at all | 29.2 |
